Assay results from the supplement of paper PMC10307832.

Experiments:
Assay in all cases: relative viability (nuclei count vs DMSO), 5 days (fraction); higher = more cells survive
[1] = compound: CC1=C(C(=NN1)C)CC2=C(C3=C(S2)N(C(=O)N(C3=O)C)CC(C)C)C(=O)N4C[C@@H](CO4)O + CC(=O)Nc1cccc(-n2c(=O)n(C3CC3)c(=O)c3c(Nc4ccc(I)cc4F)n(C)c(=O)c(C)c32)c1 [Trametinib] (partner 0.02 µM)
Method in brief: (§1)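 Relative viability is defined as nuclei in treated wells over nuclei in vehicle wells. Duplicate plates were run and medians reported. Lung cancer cell lines in 1536-well plates were dosed by pin tool one day after seeding, with one drug or with a fixed anchor-drug dose plus five library-drug doses (not always all listed) in √10 steps, and nuclei were counted after 5 days.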

[2] = compound: CC1=C(C(=NN1)C)CC2=C(C3=C(S2)N(C(=O)N(C3=O)C)CC(C)C)C(=O)N4C[C@@H](CO4)O + Cc1nc(Nc2ncc(C(=O)Nc3c(C)cccc3Cl)s2)cc(N2CCN(CCO)CC2)n1 [Dasatinib] (partner 0.075 µM)
Method in brief: as §1

[3] = compound: Cc1ccccc1C(C(=O)NC1CCCCC1)N(C(=O)Cn1ccnc1C)c1cccc(F)c1 [IDH-C35] + COc1cccc2cc(-c3nc([C@H]4CC[C@H](C(=O)O)CC4)n4ncnc(N)c34)[nH]c12 [OSI-027] (partner 0.5 µM)
Method in brief: as §1

[4] = compound: Cc1ccccc1C(C(=O)NC1CCCCC1)N(C(=O)Cn1ccnc1C)c1cccc(F)c1 [IDH-C35] + CS(=O)(=O)N1CCN(Cc2cc3nc(-c4cccc5[nH]ncc45)nc(N4CCOCC4)c3s2)CC1 [Pictilisib] (partner 1 µM)
Method in brief: as §1

Cell Line: UMC-11
- relative viability ([1]; first compound 0.0025 µM): 0.842
- relative viability ([1]; first compound 0.007906 µM): 0.84
- relative viability ([1]; first compound 0.025 µM): 0.83
- relative viability ([1]; first compound 0.07906 µM): 0.677
- relative viability ([1]; first compound 0.25 µM): 0.993
- relative viability ([2]; first compound 0.0025 µM): 0.435
- relative viability ([2]; first compound 0.007906 µM): 0.468
- relative viability ([2]; first compound 0.025 µM): 0.451
- relative viability ([2]; first compound 0.07906 µM): 0.348
- relative viability ([2]; first compound 0.25 µM): 0.439
- relative viability ([3]; first compound 0.08 µM): 0.444
- relative viability ([3]; first compound 0.253 µM): 0.47
- relative viability ([3]; first compound 0.8 µM): 0.473
- relative viability ([3]; first compound 2.53 µM): 0.482
- relative viability ([3]; first compound 8 µM): 0.463
- relative viability ([4]; first compound 0.08 µM): 0.874
- relative viability ([4]; first compound 0.253 µM): 0.794
- relative viability ([4]; first compound 0.8 µM): 0.759
- relative viability ([4]; first compound 2.53 µM): 0.79
- relative viability ([4]; first compound 8 µM): 0.889
